Reference: PubChem BioAssay AID2060325 (Molecular Pharmacology Branch, DTP, NCI, 2025)
Several values for one entry are separate records, joined by “and”; a condition that tells them apart may be missing. Identical values can stand only once.

Tested on: SK-OV-3 multi-cell spheroids, viability
Assay: Anticancer human tumor SK-OV-3 cell line growth inhibition [IpAb];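 for viability, T/C: viability read after seven days of drug exposure; percent of DMSO vehicle control luminescence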
Conditions: for viability, T/C: stronger effect = lower value; active = viability on the fitted dose curve at most 10% of control; inactive = the rest
How it was run: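 Combinations with ipatasertib or abemaciclib were tested on tumour spheroids holding HUVEC (25%) and MSC (15%) alongside 60% malignant cells. Top concentration was at or near clinical Cmax (10 microM if undefined), descending in half-log steps.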

[1] = curve of first compound, second compound 0.1 µM
[2] = curve of first compound, second compound 0.316 µM
[3] = curve of first compound, second compound 1 µM
[4] = second compound 0.1 µM, first compound 0.0316 µM
[5] = second compound 0.1 µM, first compound 0.1 µM
[6] = second compound 0.316 µM, first compound 0.0316 µM
[7] = second compound 0.316 µM, first compound 0.1 µM
[8] = second compound 1 µM, first compound 0.0316 µM
[9] = second compound 1 µM, first compound 0.1 µM

C=CC(=O)N1CCN(c2nc(=O)n(-c3c(C)ccnc3C(C)C)c3nc(-c4c(O)cccc4F)c(F)cc23)C(C)C1 (stereo unspecified)
> 10 µM: IC50 (curve of compound)
inactive: viability, T/C (compound 0.0316 µM) 100% and 104% | viability, T/C (compound 0.1 µM) 107% and 105% | viability, T/C (compound 0.316 µM) 111% and 117% | viability, T/C (compound 1 µM) 115% and 130% | viability, T/C (compound 3.16 µM) 125% and 120% | viability, T/C (compound 10 µM) 77.3% and 82.5%

Cn1ncnc1[C@H]1c2n[nH]c(=O)c3cc(F)cc(c23)N[C@@H]1c1ccc(F)cc1 + CCN1CCN(Cc2ccc(Nc3ncc(F)c(-c4cc(F)c5nc(C)n(C(C)C)c5c4)n3)nc2)CC1
< 0.000316 µM: IC50 [3]
inactive: viability, T/C (second compound 0.01 µM, first compound 0.000316 µM) 99.8% | viability, T/C (second compound 0.01 µM, first compound 0.001 µM) 93.9% | viability, T/C (second compound 0.01 µM, first compound 0.00316 µM) 86.6% | viability, T/C (second compound 0.01 µM, first compound 0.01 µM) 86.3% | viability, T/C (second compound 0.01 µM, first compound 0.0316 µM) 83.4% | viability, T/C (second compound 0.01 µM, first compound 0.1 µM) 60.2% | viability, T/C (second compound 0.0316 µM, first compound 0.000316 µM) 75.2% | viability, T/C (second compound 0.0316 µM, first compound 0.001 µM) 81.6% | viability, T/C (second compound 0.0316 µM, first compound 0.00316 µM) 70.7% | viability, T/C (second compound 0.0316 µM, first compound 0.01 µM) 63.4% | viability, T/C (second compound 0.0316 µM, first compound 0.0316 µM) 66.3% | viability, T/C (second compound 0.0316 µM, first compound 0.1 µM) 58.4% | viability, T/C (second compound 0.1 µM, first compound 0.000316 µM) 60.7% | viability, T/C (second compound 0.1 µM, first compound 0.001 µM) 59.5% | viability, T/C (second compound 0.1 µM, first compound 0.00316 µM) 56.4% | viability, T/C (second compound 0.1 µM, first compound 0.01 µM) 53.4% | viability, T/C [4] 53.2% | viability, T/C [5] 50.5% | viability, T/C (second compound 0.316 µM, first compound 0.000316 µM) 55.8% | viability, T/C (second compound 0.316 µM, first compound 0.001 µM) 56.3% | viability, T/C (second compound 0.316 µM, first compound 0.00316 µM) 52.1% | viability, T/C (second compound 0.316 µM, first compound 0.01 µM) 52% | viability, T/C [6] 51.4% | viability, T/C [7] 53.3% | viability, T/C (second compound 1 µM, first compound 0.000316 µM) 49.5% | viability, T/C (second compound 1 µM, first compound 0.001 µM) 45.1% | viability, T/C (second compound 1 µM, first compound 0.00316 µM) 43.2% | viability, T/C (second compound 1 µM, first compound 0.01 µM) 46.4% | viability, T/C [8] 45.4% | viability, T/C [9] 43%
> 0.1 µM: IC50 (curve of first compound, second compound 0.01 µM) | IC50 (curve of first compound, second compound 0.0316 µM) | IC50 [1] | IC50 [2]

Cn1nccc1Nc1nccc(-c2ccn(C(CO)c3ccc(Cl)c(F)c3)c(=O)c2)n1 (stereo unspecified) + CC(C)NCC(C(=O)N1CCN(c2ncnc3c2C(C)CC3O)CC1)c1ccc(Cl)cc1
inactive: viability, T/C [4] 71.3% | viability, T/C [5] 68% | viability, T/C (second compound 0.1 µM, first compound 0.316 µM) 67.6% | viability, T/C (second compound 0.1 µM, first compound 1 µM) 68.3% | viability, T/C (second compound 0.1 µM, first compound 3.16 µM) 62.3% | viability, T/C (second compound 0.1 µM, first compound 10 µM) 31.9% | viability, T/C [6] 36.5% | viability, T/C [7] 36% | viability, T/C (second compound 0.316 µM, first compound 0.316 µM) 37.7% | viability, T/C (second compound 0.316 µM, first compound 1 µM) 36.9% | viability, T/C (second compound 0.316 µM, first compound 3.16 µM) 29.7% | viability, T/C (second compound 0.316 µM, first compound 10 µM) 16.6% | viability, T/C [8] 18.4% | viability, T/C [9] 18.7% | viability, T/C (second compound 1 µM, first compound 0.316 µM) 17.6% | viability, T/C (second compound 1 µM, first compound 1 µM) 16.8% | viability, T/C (second compound 1 µM, first compound 3.16 µM) 15.2% | viability, T/C (second compound 1 µM, first compound 10 µM) 7.24% | viability, T/C (second compound 3.16 µM, first compound 0.0316 µM) 15.6% | viability, T/C (second compound 3.16 µM, first compound 0.1 µM) 12.6% | viability, T/C (second compound 3.16 µM, first compound 0.316 µM) 10.6% | viability, T/C (second compound 10 µM, first compound 0.0316 µM) 9.59%
active: viability, T/C (second compound 3.16 µM, first compound 1 µM) 9.52% | viability, T/C (second compound 3.16 µM, first compound 3.16 µM) 8.01% | viability, T/C (second compound 3.16 µM, first compound 10 µM) 4.41% | viability, T/C (second compound 10 µM, first compound 0.1 µM) 8.62% | viability, T/C (second compound 10 µM, first compound 0.316 µM) 7.34% | viability, T/C (second compound 10 µM, first compound 1 µM) 7.5% | viability, T/C (second compound 10 µM, first compound 3.16 µM) 6.98% | viability, T/C (second compound 10 µM, first compound 10 µM) 2.15%
< 0.0316 µM: IC50 [2] | IC50 [3] | IC50 (curve of first compound, second compound 3.16 µM) | IC50 (curve of first compound, second compound 10 µM)
5.04 µM: IC50 [1]

Cn1ncc(Cl)c1-c1cc(C(=O)NC(CN)Cc2cccc(F)c2)sc1Cl (stereo unspecified)
inactive: viability, T/C (compound 0.0316 µM) 73.4% and 80.3% | viability, T/C (compound 0.1 µM) 52.8% and 48.3% | viability, T/C (compound 0.316 µM) 27.5% and 26.4% | viability, T/C (compound 1 µM) 16.1% and 19%
0.106 µM and 0.0961 µM: IC50 (curve of compound)
active: viability, T/C (compound 3.16 µM) 8.76% and 8.97% | viability, T/C (compound 10 µM) 0.31% and 1.17%

Cn1cnc2c(F)c(Nc3ccc(Br)cc3Cl)c(C(=O)NOCCO)cc21
inactive: viability, T/C (compound 0.00949 µM) 96% and 97.7% | viability, T/C (compound 0.03 µM) 106% and 99.9% | viability, T/C (compound 0.0949 µM) 98% and 112% | viability, T/C (compound 0.3 µM) 104% and 108% | viability, T/C (compound 0.949 µM) 73.2% and 80.4% | viability, T/C (compound 3 µM) 39.5% and 29.2%
2.1 µM and 1.88 µM: IC50 (curve of compound)
